{"source": "patent US11766430B2", "about": "“Methods of using a phenoxypropylamine compound to treat pain” (Minerva Neurosciences, Inc., priority 2018, dated 2023)", "key": {"[1]": {"tested_on": "paclitaxel-induced peripheral neuropathic pain in rats", "experiment": "Reversal of paclitaxel-induced peripheral neuropathic pain, paw withdrawal threshold, chronic administration (Example 6)", "type": "in vivo, Male Sprague Dawley rats", "settings": "for PWT compared to vehicle (in words): days 14, 21 and 28; for PWT after cessation of treatment (in words): 100 mg/kg orally, day 35, one week after cessation of treatment", "description": "(§1) Male Sprague Dawley rats from Envigo were used in the study. Animals were received at approximately 250 g and housed 3 per cage upon arrival. All rats were examined, handled, and weighed prior to initiation of the study to assure adequate health and suitability. During the course of the study, 12/12 light/dark cycles was maintained. The room temperature was be maintained between 20 and 23° C. with a relative humidity maintained around 50%. Chow and water was provided ad libitum for the duration of the study. All testing was performed during the animal's light cycle phase.\n(§2) Paclitaxel (2 mg/kg) was purchased from Biolyse Pharma and injected i.p. on four alternate days (day 1, 3, 5 and 7) for a total of 4 injections at a dose volume of 1 mL/kg.\n(§3) Gabapentin (100 mg/kg) was dissolved in saline and administered orally at a dose volume of 1 mL/kg. For prevention study, gabapentin was administered on day 14, sixty minutes prior to test. For reversal study, gabapentin was administered once daily for 2 weeks. On test days it was administered 60 minutes prior to test.\nReversal study: MIN-117 (1, 3 and 10 mg/kg) was formulated in 0.5% (w/v) hydroxypropylmethyl cellulose (HPMC) 8°-120 centipoises in water and administered i.p once daily for 2 weeks at a dose volume of 1 mL/kg. On test days, MIN-117 was administered 2 hours prior to test.\n(§4) Rats were administered paclitaxel (2 mg/kg) on four alternate days (days 1, 3, 5 and 7). Baseline and post treatment Paw Withdrawal Threshold (PWT) were evaluated using von Frey filaments (Semmes-Weinstein filaments, Stoelting, Wood Dale, Ill., USA) of varying stiffness (0.4, 0.7, 1.2, 2.0, 3.6, 5.5, 8.5, 10, 15, 26 g). Animals were placed on a perforated metallic platform and allowed to acclimate to their surroundings for a minimum of 15 minutes before each test session. Each filament was presented perpendicular to the plantar surface with sufficient force to cause slight buckling against the paw, and then held until a positive response is noted (paw sharply withdrawn). As described by Chaplan et al. 1994, once the threshold was crossed, the 2 responses straddling the threshold are retrospectively designated as the first 2 responses. Four additional responses were measured to stimuli varied sequentially up or down based on the animal's response. The 6 responses in the immediate vicinity of the threshold were used to calculate the 50% g threshold: 50% g threshold=(10^[Xf+k*d])/10000 Xf is the final filament used (in log units). The parameter k is from the Appendix 1 in Chaplan and was determined by the pattern of the von Frey responses (e.g. OXOXOX where ‘O’ indicates no response and ‘X’ denotes a withdrawal). The parameter d is the difference between stimuli which Chaplan used a constant d=0.224. To accommodate for the use of the 10 g and 26 g filaments, the exact difference between stimuli were used.\n(§5) PWT was measured according to the Schematics in FIG. 9 (prevention) and FIG. 10 (reversal study).\nData was analyzed by analysis of variance (ANOVA) followed by post-hoc comparisons where appropriate. An effect will be considered significant if p<0.05. Data was represented as the mean and standard error to the mean (s.e.m). Statistical outliers that fell above or below 2 standard deviations of the mean were identified but not removed from the final analysis."}, "[2]": {"experiment": "Body weight during the chemotherapy induced neuropathic pain study (Example 5)", "type": "in vivo, Male Sprague Dawley rats", "settings": "paclitaxel days 1, 3, 5, 7; test compound on day 14; repeated measures ANOVA", "description": "as §1, with “(from Envigo, Ind., USA)” for “from Envigo”, “12 h/12 h” for “12/12”, “phase. Every effort was made to minimize suffering of animals. Rats with baseline PWT less than 12 g were not included in the study. Rats were balanced by body weight and by their pre-paclitaxel PWT values. ANOVA found no significant differences between the treatment groups.” for “phase.”"}, "[3]": {"tested_on": "chemotherapy-induced peripheral neuropathic pain in rats", "experiment": "Paclitaxel-induced peripheral neuropathic pain, paw withdrawal threshold with von Frey filaments, single administration (Example 5)", "type": "in vivo, Male Sprague Dawley rats", "description": "Assessment of neuropathic pain using von Frey filaments was performed. Rats were administered paclitaxel (2 mg/kg) on four alternate days (days 1, 3, 5 and 7). Baseline and post treatment paw withdrawal thresholds (PWT) were evaluated using von Frey filaments (Semmes-Weinstein filaments, Stoelting, Wood Dale, Ill., USA) of varying stiffness (0.4, 0.7, 1.2, 2.0, 3.6, 5.5, 8.5, 10, 15, 26 g). Animals were placed on a perforated metallic platform and allowed to acclimate to their surroundings for a minimum of 15 minutes before each test session. Each filament was presented perpendicular to the plantar surface with sufficient force to cause slight buckling against the paw, and then held until a positive response is noted (paw sharply withdrawn). As described by Chaplan, S. R. et al. “Qualitative Assessment of Tactile Allodynia in the Rat Paw” Journal of Neuroscience Methods, 53 (1994), 55-63 (“Chaplan”), once the threshold was crossed, the 2 responses straddling the threshold are retrospectively designated as the first 2 responses. Four additional responses were measured to stimuli varied sequentially up or down based on the animal's response. The 6 responses in the immediate vicinity of the threshold were used to calculate the 50% g threshold: 50% g threshold=(10^[Xf+k*d])/10000\nXf is the final filament used (in log units). The parameter k is from the Appendix 1 in Chaplan and was determined by the pattern of the von Frey responses (e.g. OXOXOX where ‘O’ indicates no response and ‘X’ denotes a withdrawal). The parameter d is the difference between stimuli which Chaplan used a constant d=0.224. To accommodate for the use of the 10 g and 26 g filaments, the exact difference between stimuli were used.\nas §1, with “(from Envigo, Ind., USA)” for “from Envigo”, “12 h/12 h” for “12/12”, “phase. Every effort was made to minimize suffering of animals. Rats with baseline PWT less than 12 g were not included in the study. Rats were balanced by body weight and by their pre-paclitaxel PWT values. ANOVA found no significant differences between the treatment groups.” for “phase.”\nPaclitaxel was purchased from Biolyse Pharma (Ontario, Canada) and was injected i.p. (2 mg/kg) on four alternate days (day 1, 3, 5 and 7) for a total of 4 injections at a dose volume of 1 mL/kg.\nRats were subsequently balanced and assigned to treatment groups based on post-paclitaxel PWT values. On test day, PWT was assessed two hours post vehicle or MIN-117 injections and one hour after gabapentin administration.\nGabapentin was purchased from Toronto Research Chemicals and was dissolved in saline and administered orally 60 minutes prior to test at a dose volume of 1 mL/kg. MIN-117 (1, 3 and 10 mg/kg), formulated in 0.5% (w/v) hydroxypropylmethylcellulose (HPMC, Sigma-Aldrich), was administered i.p. at a dose volume of 1 mL/kg. MIN-117 was administered 2 hours prior to test."}, "[4]": {"tested_on": "paclitaxel-induced peripheral neuropathic pain in rats", "experiment": "Prevention of paclitaxel-induced peripheral neuropathic pain, paw withdrawal threshold, chronic administration (Example 6)", "type": "in vivo, Male Sprague Dawley rats", "settings": "100 mg/kg orally on day 14, sixty minutes prior to test (acute)", "description": "as §1, §2, §3\nPrevention study: MIN-117 (10 mg/kg) was formulated in 0.5% (w/v) hydroxypropylmethyl cellulose (HPMC) 8°-120 centipoises in water and was administered i.p once daily for 7 or 14 days at a dose volume of 1 mL/kg. On test days, MIN-117 was administered 2 hours prior to test.\nas §4, with “The 6 responses in the immediate vicinity of the threshold were used to calculate the 50% g threshold: 50% g threshold=(10^[Xf+k*d])/10000 Xf is the final filament used (in log units).” left out, “The parameter d is the difference between stimuli which Chaplan used a constant d=0.224. To accommodate for the use of the 10 g and 26 g filaments, the exact difference between stimuli were used.” left out\nas §5\nData was analyzed by analysis of variance (ANOVA) followed by post-hoc comparisons where appropriate. […]"}, "[5]": {"tested_on": "paclitaxel-induced neuropathy in rats", "experiment": "Other antidepressants in paclitaxel-induced neuropathy, paw withdrawal threshold (Example 7)", "type": "in vivo", "settings": "60 min. following administration", "description": "Two classes of antidepressants were also evaluated in Paw Withdrawal Threshold (PWT) experiments: duloxetine, a serotonin norepinephrine reuptake inhibitor, and amitriptyline, a tricyclic antidepressant.\n(§6) On day 22, post-paclitaxel administration (left-most columns in FIG. 16 correspond to rats not administered paclitaxel), rats were administered vehicle (second columns from left in FIG. 16) or duloxetine (orally) and PWT was assessed 60 min. following injection. Data represents mean±s.e.m. (* p<0.05 vs. vehicle/vehicle).\nas §6, with “27,” for “22,”, “17” for “16”, “17)” for “16)”, “amitriptyline” for “duloxetine”, “vehicle/vehicle, #p<0.05 vs. paclitaxel/vehicle).” for “vehicle/vehicle).”"}}, "note": "Entries after “also recorded” stand apart in the source; their conditions may differ."}
{"compound": "Cc1nnc(-c2cc3c(OC[C@@H](O)CN4CCC(c5ccc(Cl)c(Cl)c5)CC4)cccc3o2)o1", "note": "[Compound I, (2S)-1-(4-(3,4-dichlorophenyl)piperidin-1-yl)-3-((2-(5-methyl-1,3,4-oxadiazol-2-yl)benzofuran-4-yl)oxy)propan-2-ol]", "values": [{"measurement": "PWT compared to vehicle (in words)", "setting": "[1]; 1 mg/kg i.p. once daily for 2 weeks, 2 hours post dosing", "result": "significant increases in pain with threshold"}, {"measurement": "PWT compared to vehicle (in words)", "setting": "[1]; 3 mg/kg i.p. once daily for 2 weeks, 2 hours post dosing", "result": "significant increases in pain with threshold"}, {"measurement": "PWT compared to vehicle (in words)", "setting": "[1]; 10 mg/kg i.p. once daily for 2 weeks, 2 hours post dosing", "result": "significant increases in pain with threshold"}]}
{"compound": "NCC1(CC(=O)O)CCCCC1", "note": "[Gabapentin, reference compound]", "values": [{"measurement": "Body weight during the study, between groups (in words)", "setting": "[2]", "result": "no significant difference between groups"}, {"measurement": "Paw withdrawal threshold (PWT) compared to vehicle (in words)", "setting": "[3]; Day 14 after first paclitaxel, administered orally 60 minutes prior to test", "result": "significant increase in PWT"}, {"measurement": "Paw withdrawal threshold (PWT), Day 14 Avg., Mean", "setting": "[3]; Paclitaxel + Gabapentin (100 mg/kg), oral, 60 minutes prior to test, Count 12", "result": 19.633, "unit": "g"}, {"measurement": "Mean Diff. of Day 14 Avg. PWT, Fisher's PLSD", "setting": "[3]; Paclitaxel + Vehicle, Paclitaxel + Gabapentin (100 mg/kg)", "result": "−15.759"}, {"measurement": "PWT compared to vehicle (in words)", "setting": "[4]", "result": "significant increase in PWT; also recorded: significantly higher PWT"}, {"measurement": "PWT compared to vehicle (in words)", "setting": "[1]; 100 mg/kg orally once daily for 2 weeks (chronic), 1 hour post dosing", "result": "significant increase in PWT; also recorded: significantly higher PWT"}, {"measurement": "PWT after cessation of treatment (in words)", "setting": "[1]", "result": "returned to vehicle levels"}, {"measurement": "PWT after cessation of treatment (in words)", "setting": "[1]; listed as gabapentin", "result": "no significant effect on PWT"}]}
{"compound": "CN(C)CCC=C1c2ccccc2CCc2ccccc21", "note": "[amitriptyline]", "values": [{"measurement": "Effect on PWT in paclitaxel-treated rats (in words)", "setting": "[5]; 3 mg/kg orally, day 27 post-paclitaxel", "result": "not found to reverse paclitaxel-induced neuropathy"}, {"measurement": "Effect on PWT in paclitaxel-treated rats (in words)", "setting": "[5]; 10 mg/kg orally, day 27 post-paclitaxel", "result": "not found to reverse paclitaxel-induced neuropathy"}, {"measurement": "Effect on PWT in paclitaxel-treated rats (in words)", "setting": "[5]; 30 mg/kg orally (highest dose tested), day 27 post-paclitaxel", "result": "only partially reversed"}]}
{"compound": "CNCC[C@H](Oc1cccc2ccccc12)c1cccs1", "note": "[duloxetine]", "values": [{"measurement": "Effect on PWT in paclitaxel-treated rats (in words)", "setting": "[5]; 3 mg/kg orally, day 22 post-paclitaxel", "result": "no effect on PWT"}, {"measurement": "Effect on PWT in paclitaxel-treated rats (in words)", "setting": "[5]; 10 mg/kg orally, day 22 post-paclitaxel", "result": "no effect on PWT"}, {"measurement": "Effect on PWT in paclitaxel-treated rats (in words)", "setting": "[5]; 30 mg/kg orally, day 22 post-paclitaxel", "result": "no effect on PWT"}]}
